Legend:
hPSC SCVI8 = experiment: DEAB-treated cardiomyocyte differentiation, RT-PCR at day 14; assay type: cell-based, human; conditions: DEAB 1 nM-100 μM, day 3 to 7 or day 5 to 7
Protocol: hPSC SCVI8 were cultured in Matrigel® (Corning, Cat. No. 354277) coated petri dishes in complete mTeSR™ Plus basal medium (StemCell Technologies, Cat. No. 100-0276) supplemented with 20% (v/v) mTeSR™ Plus 5× supplement (StemCell Technologies) and 0.5% (v/v) streptomycin and penicillin (ThermoFisher, Cat. No. 15140163) at 37° C. in 5% CO2. Media was changed daily and cells passaged when confluency reached approximately 80%.
Cardiomyocyte differentiation was achieved using small-molecule modulators of canonical Wnt signalling as described by Lian et al. (Lian et al. […]; 8(1):162-175), but with the addition of 1 nM, 1 μM or 100 μM 4-diethylaminobenzaldehyde (DEAB, Sigma Merck, Cat. No. D86256) at either day 3 or 5 of differentiation (FIG. 9a.). In brief, hPSC SCVI8 cells from confluent dishes were washed once with Dulbeco's Phosphate Buffered Saline (DPBS) without calcium and magnesium (Lonza, Cat. No. 17-512F), and harvested with TrypLE™ Express Enzyme (ThermoFisher, Cat. No. 12604021) and seeded at a concentration of 3.75×10^5 cells/mL in Matrigel® coated 12-well plates at a volume of 2 mL of complete mTeSR Plus basal medium and 10 μM Y-27632 (RHO/ROCK) inhibitor (StemCell Technologies, Cat. No. 072304). At day 0 of differentiation, cells were washed once using DPBS and transferred to mesoderm induction media that consisted of 6 μM CHIR99021 (GSK3 inhibitor, Tocris, Cat. No. 4423) in complete Roswell Park Memorial Institute (RPMI) 1640 medium, no glutamine (ThermoFisher, Cat. No. 21870092) supplemented with 2% (v/v) B-27 supplement, minus insulin (ThermoFisher, Cat. No. A1895601), 0.5% (v/v) streptomycin and penicillin and 1% (v/v) GlutaMAX™ supplement (ThermoFisher, Cat. No. 35050061). At day 1, CHIR99021 was removed, and cells maintained in complete RPMI minus insulin. At day 3, cells were transferred to cardiac induction media that consisted of 5 μM IWP-2 (Tocris, Cat. No. 3533) in complete RPMI minus insulin and was removed at day 5. At day 7 of differentiation, cells were maintained in complete RPMI supplemented with 2% (v/v) B-27™ Supplement (50×) (ThermoFisher, Cat. No. 17504-001), 0.5% (v/v) streptomycin and penicillin and 1% (v/v) GlutaMAX™ supplement. The media was changed every 2-3 days. Cells were harvested at day 14 for quantitative real-time polymerase chain reaction (RT-PCR).
Total cellular RNA was extracted using the Isolate II RNA Mini Kit (Bioline, Cat. No. BIO-52073) as per the manufacturer's instructions. Reverse transcription was performed with M-MLV Reverse Transcriptase (Promega, Cat. No. M1701) following the manufacturer's protocol. mRNA gene expression was assessed by qPCR using SensiFAST™ SYBR® No-ROX Kit (Meridian Bioscience, Cat. No. BIO-98050) on the Bio-Rad CFX384 Real-Time PCR detection system, with the following PCR conditions: 95° C. for 2 min and 40 cycles of 95° C. for 5 s, 60° C. for 10 s and 72° C. for 15 s, followed by melt curve analysis. All primers used for detection of mRNA expression are outline in Table 3. All data was normalised to the reference gene 18S and normalised to control cells (non-treated PSC-CM).

[1] = system: PSC-CMs cultured in monolayer; experiment: In-vitro spontaneous beat rate of PSC-CMs under anti-arrhythmic drugs; assay type: cell-based, human; conditions: 0-100 μM drug concentrations
From the text: FIG. 3. […] A further 2 animals underwent sham infarction and vehicle injection. (b) Representative CMR reconstruction (created with ADAS 3D) merged with epicardial voltage map, used to choose, and annotate border and infarct zone injection sites (black circles). (c) Plot depicting the percentage of time per day each cell (red), cell and drug (blue), or vehicle (green) recipient spent in ventricular arrhythmia over course of study protocol. […] (f) Dose-dependent suppression of PSC-CM contraction rate using amiodarone (dark purple, square) and ivabradine (light purple, circle) in vitro (0-100 μM drug concentrations). […] (h) Telemetry strip from representative cell and anti-arrhythmic recipient showing predominantly sinus rhythm with occasional ventricular ectopic beat. (i-k) Arrythmia parameters from day 0 to day 28 for each subject, grouped by treatment allocation (presented as mean±SEM). […]
Given the automatic mechanism for PSC-CM EAs, the inventors hypothesised that suppressing the rate of graft automaticity below that of the native sinus node would reduce arrhythmia burden. […] To further interrogate this finding the beat rates of sinus rhythm and EAs for each animal were analysed.

[2] = system: H9 human embryonic stem cell line containing a gCaMP6f reporter, differentiating aggregates; experiment: Bioreactor PSC-CM differentiation with retinoic acid signalling activated: cTnT flow cytometry, qPCR, scRNA-seq, beat frequency; assay type: cell-based
Protocol: The H9 cell line containing the gCaMP6f fluorescent calcium reporter was used for all experiments (provided by University of Queensland StemCore facility). Each production run was started from a frozen working cell bank (WCB) cryovial, which was expanded for 8 days in monolayer on matrigel (Corning) using the commercially available medium mTeSR™ Plus (Stem Cell Technologies) (FIG. 1). On Day −3, cells were inoculated at a density of 2.5-3.0×10^5 cells/mL in mTeSR 3D supplemented with 10 μM Y-27632 (TOCRIS Bioscience) and 10 ug/mL of a thermoresponsive polymer pNIPAM conjugated to fibronectin (Chen, X. et al. Tissue Eng Part C Methods 24, 146-157) to form aggregates. A DASbox (Eppendorf) stirred tank bioreactor system was used for aggregate formation and suspensions controlled at 37.2° C., pH 7.2, and 30% DO. At day −1, rapamycin (Merck) was added to a final concentration of 5 nM to enhance survival during differentiation. […]
The expression of cTnT was measured on a Cytoflex Flow Cytometer (Beckman Coulter). […]
Reactions were performed in technical triplicate. Quantitative PCR was performed on the BioRad CFX96 Real-Time PCR Detection System with standard cycling parameters described in the master mix protocol. […] Fold difference in expression was calculated using the comparative CT formula, using GAPDH cDNA from a reference sample. […]

## CCN(CC)c1ccc(C=O)cc1 [DEAB, 4-diethylaminobenzaldehyde]
hPSC SCVI8; RT-PCR day 14
  expression level of IRX4: no significant difference
  expression level of KCNJ3: significant lower expression levels
  expression level of MYH7: no significant difference
  expression level of MYL2v: no significant difference
  expression level of SHOX2: significant lower expression levels
hPSC SCVI8; RT-PCR day 14, relative to 18S, versus non-treated PSC-CM
  expression level of cTnT: no significant difference

## COc1cc2c(cc1OC)CC(=O)N(CCCN(C)C[C@H]1Cc3cc(OC)c(OC)cc31)CC2 [Ivabradine]
[1]
  spontaneous beat rate of PSC-CMs: dose-dependent reduction in the spontaneous beat rate

## CC1=C(/C=C/C(C)=C/C=C/C(C)=C/C(=O)O)C(C)(C)CCC1 [Retinoic acid, retinoic acid]
[2]; RA signalling activated day 2 to day 6, n=12, control differentiations in parallel 83.6±7.0%
  cTnT expression: 62.4±33.1%
[2]; day 15 before aggregate dissociation, n=6, control 14.2±5.5 b.p.m
  rate of spontaneous contraction of aggregates: 50.7±16.8 b.p.m

## CCCCc1oc2ccccc2c1C(=O)c1cc(I)c(OCCN(CC)CC)c(I)c1 [amiodarone]
[1]
  spontaneous beat rate of PSC-CMs: dose-dependent reduction in the spontaneous beat rate
